Test [1] has as its target T1, Inhibitor of nuclear factor kappa-B kinase subunit alpha (Homo sapiens) (UniProt O15111).
T1 sequence (whole entry): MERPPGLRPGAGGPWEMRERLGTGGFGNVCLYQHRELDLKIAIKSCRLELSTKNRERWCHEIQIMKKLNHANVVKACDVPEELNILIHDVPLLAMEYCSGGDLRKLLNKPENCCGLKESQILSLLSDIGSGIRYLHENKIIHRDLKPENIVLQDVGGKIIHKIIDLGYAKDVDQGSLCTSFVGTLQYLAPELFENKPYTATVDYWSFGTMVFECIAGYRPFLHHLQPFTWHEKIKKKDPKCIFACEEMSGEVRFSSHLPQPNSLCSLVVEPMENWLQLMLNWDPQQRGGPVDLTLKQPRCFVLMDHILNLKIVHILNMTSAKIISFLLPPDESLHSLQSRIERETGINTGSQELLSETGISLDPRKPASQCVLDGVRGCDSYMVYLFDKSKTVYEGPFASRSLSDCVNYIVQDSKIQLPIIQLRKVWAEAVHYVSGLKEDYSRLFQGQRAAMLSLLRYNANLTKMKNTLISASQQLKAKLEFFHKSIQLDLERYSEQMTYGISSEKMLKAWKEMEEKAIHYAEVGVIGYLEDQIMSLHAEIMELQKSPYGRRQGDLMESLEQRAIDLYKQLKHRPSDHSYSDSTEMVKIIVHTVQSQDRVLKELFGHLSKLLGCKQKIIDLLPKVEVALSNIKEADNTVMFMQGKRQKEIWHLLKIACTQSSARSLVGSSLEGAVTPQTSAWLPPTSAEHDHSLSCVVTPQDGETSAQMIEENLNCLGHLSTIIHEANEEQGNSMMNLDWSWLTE
Put plainly: Selectivity interaction (Millipore kinase profiler) EUB0000124b CHUK. The conditions noted are these: at 10 µM.

The target of test [2] is T2, Phosphorylase b kinase gamma catalytic chain, liver/testis isoform (Homo sapiens) (UniProt P15735).
T2 sequence (whole entry): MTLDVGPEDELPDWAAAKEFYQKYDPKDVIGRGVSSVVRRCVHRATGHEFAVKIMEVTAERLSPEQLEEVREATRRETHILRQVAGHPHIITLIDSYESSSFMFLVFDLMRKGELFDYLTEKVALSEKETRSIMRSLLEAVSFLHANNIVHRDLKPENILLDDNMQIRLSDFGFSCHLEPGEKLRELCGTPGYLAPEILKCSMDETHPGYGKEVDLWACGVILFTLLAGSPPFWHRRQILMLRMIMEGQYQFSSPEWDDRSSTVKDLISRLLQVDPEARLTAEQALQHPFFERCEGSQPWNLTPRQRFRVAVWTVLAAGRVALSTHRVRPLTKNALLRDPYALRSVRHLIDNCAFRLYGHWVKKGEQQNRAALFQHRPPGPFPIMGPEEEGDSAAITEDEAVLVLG
Kind of test: Selectivity interaction (KinomeScan (DiscoverX)) EUB0000695a PHKG2. The conditions noted are these: at 100 nM.

Test [3] concerns the target RAF proto-oncogene serine/threonine-protein kinase (Homo sapiens) (UniProt P04049). Put plainly: Selectivity interaction (Kinase screening (Upstate/Millipore)) EUB0000604a RAF1.
The target of test [4] is Tyrosine-protein kinase JAK2 (Homo sapiens, UniProt O60674). Put plainly: Selectivity interaction (Kinase panel (Carna Biosciences)) EUB0001542aTs JAK2. The conditions noted are these: at 1 µM.
Test [5] addresses Serine/threonine-protein kinase pim-1 (Homo sapiens, UniProt P11309). Put plainly: Selectivity interaction (Kinase panel (Z-LYTE Assay)) EUB0001632a PIM1. Conditions: at 10 µM.
Test [6] addresses T3, Serine/threonine-protein kinase Chk1 (Homo sapiens) (UniProt O14757).
T3 sequence (whole entry): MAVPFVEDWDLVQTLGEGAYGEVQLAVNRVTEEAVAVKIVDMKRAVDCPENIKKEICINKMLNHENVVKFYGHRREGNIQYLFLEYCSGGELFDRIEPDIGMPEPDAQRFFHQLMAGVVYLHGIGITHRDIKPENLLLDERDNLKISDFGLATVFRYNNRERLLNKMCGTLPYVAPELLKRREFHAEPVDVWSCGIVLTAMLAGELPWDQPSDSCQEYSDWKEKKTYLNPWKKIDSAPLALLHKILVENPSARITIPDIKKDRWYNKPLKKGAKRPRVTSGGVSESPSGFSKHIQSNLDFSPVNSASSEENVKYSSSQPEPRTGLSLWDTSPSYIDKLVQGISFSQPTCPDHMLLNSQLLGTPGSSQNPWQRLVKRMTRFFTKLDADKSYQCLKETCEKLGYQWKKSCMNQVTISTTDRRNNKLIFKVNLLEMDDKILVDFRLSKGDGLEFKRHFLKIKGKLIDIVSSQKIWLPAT
Kind of test: Selectivity interaction (KinomeScan (DiscoverX)) EUB0000607a CHEK1. The conditions noted are these: at 10 µM.

In test [7] the target is Macrophage colony-stimulating factor 1 receptor (Homo sapiens) (UniProt P07333). Put plainly: Selectivity interaction (KinomeScan (DiscoverX)) EUB0000607a CSF1R. The conditions noted are these: at 10 µM.
The target in test [8] is T4, Serine/threonine-protein kinase BRSK2 (Homo sapiens) (UniProt Q8IWQ3).
T4 sequence (whole entry): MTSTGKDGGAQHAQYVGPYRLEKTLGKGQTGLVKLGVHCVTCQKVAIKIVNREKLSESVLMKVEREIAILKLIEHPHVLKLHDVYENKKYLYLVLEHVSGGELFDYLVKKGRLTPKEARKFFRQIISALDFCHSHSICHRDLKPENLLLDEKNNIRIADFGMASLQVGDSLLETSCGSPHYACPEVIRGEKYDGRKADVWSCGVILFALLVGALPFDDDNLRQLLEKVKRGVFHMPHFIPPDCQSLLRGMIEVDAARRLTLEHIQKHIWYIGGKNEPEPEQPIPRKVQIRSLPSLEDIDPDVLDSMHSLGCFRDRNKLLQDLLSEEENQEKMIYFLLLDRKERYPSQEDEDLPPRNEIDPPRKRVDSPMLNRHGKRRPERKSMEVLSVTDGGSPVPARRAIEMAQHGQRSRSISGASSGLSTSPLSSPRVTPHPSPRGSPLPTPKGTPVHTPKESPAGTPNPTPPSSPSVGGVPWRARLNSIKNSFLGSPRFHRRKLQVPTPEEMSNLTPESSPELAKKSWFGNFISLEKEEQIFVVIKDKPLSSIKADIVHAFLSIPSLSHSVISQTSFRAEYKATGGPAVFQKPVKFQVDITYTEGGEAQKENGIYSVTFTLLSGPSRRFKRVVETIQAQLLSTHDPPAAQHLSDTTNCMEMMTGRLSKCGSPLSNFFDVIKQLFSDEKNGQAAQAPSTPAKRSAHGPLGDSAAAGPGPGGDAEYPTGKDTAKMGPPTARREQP
Kind of test: Selectivity interaction (KinomeScan (DiscoverX)) EUB0000618a BRSK2. The conditions noted are these: at 10 µM.

RAF proto-oncogene serine/threonine-protein kinase (Homo sapiens), sequence (P04049 whole entry): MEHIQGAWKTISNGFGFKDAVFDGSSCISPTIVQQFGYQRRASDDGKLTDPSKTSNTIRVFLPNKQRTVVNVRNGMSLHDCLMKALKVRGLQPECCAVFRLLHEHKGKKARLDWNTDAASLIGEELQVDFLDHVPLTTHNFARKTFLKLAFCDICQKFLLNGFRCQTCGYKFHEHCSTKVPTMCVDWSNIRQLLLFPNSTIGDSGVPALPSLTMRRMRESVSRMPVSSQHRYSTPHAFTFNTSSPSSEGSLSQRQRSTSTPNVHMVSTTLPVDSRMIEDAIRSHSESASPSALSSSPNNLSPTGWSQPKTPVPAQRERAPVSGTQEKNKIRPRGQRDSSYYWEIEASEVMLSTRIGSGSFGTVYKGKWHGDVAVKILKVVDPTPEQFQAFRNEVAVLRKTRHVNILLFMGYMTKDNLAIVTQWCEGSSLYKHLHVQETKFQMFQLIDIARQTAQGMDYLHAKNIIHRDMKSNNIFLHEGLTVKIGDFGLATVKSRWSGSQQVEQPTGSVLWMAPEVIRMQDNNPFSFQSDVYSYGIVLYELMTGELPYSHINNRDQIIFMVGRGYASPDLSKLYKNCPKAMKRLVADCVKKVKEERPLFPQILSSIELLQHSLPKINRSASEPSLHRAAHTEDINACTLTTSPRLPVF
Serine/threonine-protein kinase pim-1, sequence (P11309 whole entry, looked up): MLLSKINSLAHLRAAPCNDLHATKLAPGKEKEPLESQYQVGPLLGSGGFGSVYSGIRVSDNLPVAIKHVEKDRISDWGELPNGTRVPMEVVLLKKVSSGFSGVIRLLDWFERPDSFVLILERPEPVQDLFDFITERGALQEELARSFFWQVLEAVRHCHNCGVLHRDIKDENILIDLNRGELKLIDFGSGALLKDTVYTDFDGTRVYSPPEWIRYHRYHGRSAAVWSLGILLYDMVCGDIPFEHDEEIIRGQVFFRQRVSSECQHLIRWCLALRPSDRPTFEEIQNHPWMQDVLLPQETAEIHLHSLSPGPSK
Macrophage colony-stimulating factor 1 receptor (Homo sapiens), sequence (P07333 whole entry): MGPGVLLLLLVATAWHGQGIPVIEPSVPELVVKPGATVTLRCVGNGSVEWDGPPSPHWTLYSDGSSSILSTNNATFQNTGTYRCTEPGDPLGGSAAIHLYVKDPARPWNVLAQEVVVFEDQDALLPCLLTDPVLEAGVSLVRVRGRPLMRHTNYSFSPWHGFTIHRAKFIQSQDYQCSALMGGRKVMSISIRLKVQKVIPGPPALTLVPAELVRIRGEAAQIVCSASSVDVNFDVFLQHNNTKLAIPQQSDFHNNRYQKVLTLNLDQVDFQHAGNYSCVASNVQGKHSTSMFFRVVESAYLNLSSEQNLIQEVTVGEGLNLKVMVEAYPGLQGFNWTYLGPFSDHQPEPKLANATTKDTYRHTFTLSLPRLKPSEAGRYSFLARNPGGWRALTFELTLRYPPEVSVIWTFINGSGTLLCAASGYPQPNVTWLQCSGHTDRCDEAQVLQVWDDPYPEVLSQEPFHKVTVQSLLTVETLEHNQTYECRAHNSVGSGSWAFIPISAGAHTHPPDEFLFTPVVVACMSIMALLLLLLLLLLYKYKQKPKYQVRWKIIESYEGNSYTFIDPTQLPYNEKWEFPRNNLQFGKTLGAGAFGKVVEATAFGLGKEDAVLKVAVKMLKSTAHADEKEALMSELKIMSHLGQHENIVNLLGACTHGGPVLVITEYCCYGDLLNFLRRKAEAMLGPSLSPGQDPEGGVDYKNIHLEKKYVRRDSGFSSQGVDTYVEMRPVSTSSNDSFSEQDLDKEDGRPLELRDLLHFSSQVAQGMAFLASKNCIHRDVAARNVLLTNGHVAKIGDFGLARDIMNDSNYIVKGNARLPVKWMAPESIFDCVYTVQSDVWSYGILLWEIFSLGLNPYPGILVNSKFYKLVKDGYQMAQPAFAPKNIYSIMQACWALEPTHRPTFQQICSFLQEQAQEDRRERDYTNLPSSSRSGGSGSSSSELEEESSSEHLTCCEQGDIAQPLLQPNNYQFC
Tyrosine-protein kinase JAK2, sequence (O60674 whole entry): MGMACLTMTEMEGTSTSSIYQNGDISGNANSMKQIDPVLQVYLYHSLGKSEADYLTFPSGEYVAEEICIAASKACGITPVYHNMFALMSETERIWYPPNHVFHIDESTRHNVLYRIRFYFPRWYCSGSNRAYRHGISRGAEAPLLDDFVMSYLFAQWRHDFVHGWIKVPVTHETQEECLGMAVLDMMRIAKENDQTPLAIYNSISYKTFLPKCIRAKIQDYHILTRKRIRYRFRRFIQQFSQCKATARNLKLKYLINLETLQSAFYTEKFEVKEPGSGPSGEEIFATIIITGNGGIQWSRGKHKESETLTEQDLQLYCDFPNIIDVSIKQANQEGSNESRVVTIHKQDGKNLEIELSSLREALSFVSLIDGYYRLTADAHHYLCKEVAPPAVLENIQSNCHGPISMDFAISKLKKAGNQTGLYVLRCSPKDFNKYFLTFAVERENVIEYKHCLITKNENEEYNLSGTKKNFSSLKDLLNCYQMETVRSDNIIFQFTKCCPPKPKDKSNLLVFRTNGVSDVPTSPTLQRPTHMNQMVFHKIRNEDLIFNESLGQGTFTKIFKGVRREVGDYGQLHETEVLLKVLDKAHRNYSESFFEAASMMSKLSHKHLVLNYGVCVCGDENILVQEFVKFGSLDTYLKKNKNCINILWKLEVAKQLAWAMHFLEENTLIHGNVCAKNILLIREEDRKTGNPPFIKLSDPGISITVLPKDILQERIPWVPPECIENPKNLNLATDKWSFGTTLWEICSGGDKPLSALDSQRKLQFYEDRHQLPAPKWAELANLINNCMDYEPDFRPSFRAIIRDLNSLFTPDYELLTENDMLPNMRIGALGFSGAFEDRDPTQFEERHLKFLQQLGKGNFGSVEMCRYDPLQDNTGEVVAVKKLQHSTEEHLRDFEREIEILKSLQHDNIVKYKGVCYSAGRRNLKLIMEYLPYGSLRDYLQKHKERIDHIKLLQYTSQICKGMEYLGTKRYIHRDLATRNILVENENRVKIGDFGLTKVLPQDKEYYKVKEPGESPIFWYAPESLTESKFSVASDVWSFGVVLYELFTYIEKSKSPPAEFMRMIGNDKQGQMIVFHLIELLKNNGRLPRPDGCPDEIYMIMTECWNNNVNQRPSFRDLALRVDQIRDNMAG

As for `CC(=O)Nc1cccc(-n2c(=O)n(C3CC3)c(=O)c3c(Nc4ccc(I)cc4F)n(C)c(=O)c(C)c32)c1`, the % of control in test [1] was found to be 123%.
For the compound `Cc1cc(F)c(C(=O)Nc2cccc(-c3nncn3C(C)C)n2)cc1-n1cnc(C2CC2)c1`, the % of control in test [2] was 85%.
With `Cc1cnc(Nc2ccc(F)cc2Cl)nc1-c1c[nH]c(C(=O)N[C@H](CO)c2cccc(Cl)c2)c1`, the % of inhibition in test [3] was 3%.
Consider `Cn1cc(Nc2nccc(N3CC4CCC(C3)N4C(=O)[C@@H]3CC3(F)F)n2)cn1`, for which the % of inhibition in test [4] was found to be 101%.
Take `Cn1cc(-n2cnc3c(NCc4nc5cc(Cl)c(Cl)cc5[nH]4)nc(N4CCOCC4)nc32)cn1`: the % of control in test [5] was -1.78%.
Take `CNC(=O)Nc1ccc(-c2nc(N3CC4CCC(C3)O4)c3cnn(C4CCC5(CC4)OCCO5)c3n2)cc1`: the % of control in test [6] and in test [7] was 100% each time.
In the case of `O[C@H]1CC[C@H](Nc2ncc3nc(Nc4c(F)cc(F)cc4F)n([C@H]4CCOC4)c3n2)CC1`, the % of control in test [8] was 99%.
